Test results taken from ChEMBL document CHEMBL4382257, “Identification and Profiling of Hydantoins-A Novel Class of Potent Antimycobacterial DprE1 Inhibitors” (J Med Chem, 2018).

Columns and labels:
physchem = conditions: buffer, pH 7.4, logD
[1] = Intrinsic clearance in mouse liver microsomes at 0.5 uM after 30 mins in presence of NADPH by LC-MS/MS analysis; assay type: ADME, Microsome; conditions: 0.5 h
[2] = Intrinsic clearance in human liver microsomes at 0.5 uM after 30 mins in presence of NADPH by LC-MS/MS analysis; assay type: ADME, Microsome; conditions: 0.5 h
[3] = buffer, pH 7.4

Compound	chromatographic logD (physchem)	CLH [1]	CLH [2]	logD [3]
CC1(c2ccc(N3CCOC3=O)cc2)NC(=O)N(CC(=O)c2ccc(F)cc2F)C1=O (stereo not given)	3.94	3.54 mL/min/g	< 0.4 mL/min/g	
CC1(c2ccc(S(C)(=O)=O)cc2)NC(=O)N(CC(=O)c2ccc(F)cc2F)C1=O (stereo not given)	3.64	2.5 mL/min/g	0.46 mL/min/g	
CC1(c2ccc(NS(C)(=O)=O)cc2)NC(=O)N(CC(=O)c2ccc(F)cc2F)C1=O (stereo not given)	3.57	3.29 mL/min/g	0.47 mL/min/g	
CC1(c2ccc(C#N)cc2)NC(=O)N(CC(=NO)c2ccc(F)cc2F)C1=O (stereo in doubt; 43a)				3.38
